Read-outs that look alike come from different tables or passages of the source. Blank lines part the entries; values can stand above or below the compound they belong to.
Tests used:
[1] = Dialysis dissolution in simulated intra-articular fluid; type: physicochemical; details: for average release rate: at the 7 day time point, PBS pH 7.4 with BSA, 37° C.; for average release rate / one-half dissolution time: listed as crystalline 3-(3-methoxy-4-(4-methoxybenzyl)oxy)benzyl)-6-(1-methyl-1H-pyrazol-, monohydrate; for one-half dissolution time: dialysis bag, BSA/sodium hyaluronate in PBS pH 7.4, 37° C., 20 RPM
Method: Dialysis dissolution of the following Test Compositions in simulated intra-articular fluid was analyzed: • Crystalline 3-(3-methoxy-4-((4-methoxybenzyl)oxy)benzyl)-6-(1-methyl-1H-pyrazol-4-yl)-3H-imidazo[4,5-b]pyridin-2-amine Monohydrate Form 3, and • Crystalline 3-(3-methoxy-4-((4-methoxybenzyl)oxy)benzyl)-6-(1-methyl-1H-pyrazol-4-yl)-3H-imidazo[4,5-b]pyridin-2-amine Monohydrate Form 1.
Procedurally, Test Composition was placed into a dialysis bag along with Medium A. The dialysis bag was then closed and placed into a closed bottle containing Medium B. Medium A and B were preheated to 37° C. before use in the experiment. The closed bottles were placed into a rotating mixer system operating at 20 RPM so as to avoid suspension sedimentation inside the dialysis bag. An aliquot of Medium B from the bottle was removed at the following time points and analyzed by high-performance liquid chromatography with UV detection to determine the amount of 3-(3-methoxy-4-((4-methoxybenzyl)oxy)benzyl)-6-(1-methyl-1H-pyrazol-4-yl)-3H-imidazo[4,5-b]pyridin-2-amine in Medium B due to dialysis dissolution of the Test Composition from Medium A through the dialysis bag to Medium B: 3 hr, 6 hr, 24 hr, 29 hr, 48 hr, 72 hr, 144 hr, 168 hr, 192 hr, 216 hr, and 240 hr. One Test Composition was analyzed at the 360 hour timepoint. Medium A was bovine serum albumin (BSA) at 40 g/L (+0.2 g/L sodium azide), sodium hyaluronate at 3 g/L in reconstituted phosphate buffer saline pH 7.4. Medium B was bovine serum albumin (BSA) at 40 g/L (+0.2 g/L sodium azide) in reconstituted phosphate buffer saline pH 7.4.

[2] = Knee joint concentration and knee/plasma ratio after intra-articular administration to rats; type: in vivo, Sprague Dawley rats; details: for knee concentration of compound (in words): 0.1 mg dose, 672 hours, majority of animals
Method: (§1) Male rats were administered one of the following Test Articles via intra-articular administration to the left knee joint and thereafter pharmacokinetic properties were monitored: crystalline 3-(3-methoxy-4-((4-methoxybenzyl)oxy)benzyl)-6-(1-methyl-1H-pyrazol-4-yl)-3H-imidazo[4,5-b]pyridin-2-amine monohydrate Form 3 (“Form 3 Compound”) or crystalline 3-(3-methoxy-4-((4-methoxybenzyl)oxy)benzyl)-6-(1-methyl-1H-pyrazol-4-yl)-3H-imidazo[4,5-b]pyridin-2-amine monohydrate Form 1 (“Form 1 Compound”).
(§2) Male Sprague Dawley rats were allocated into four groups, where each group contained 12 rats having a weight in the range of 250 g to 300 g and an age of 7 to 9 weeks. Test Article was administered in the form of a suspension via intra-articular injection to the left knee joint of the rats according to the experimental design set forth in Table 1 below.
(§3) Each Test Article contained the specified methoxy-4-((4-methoxybenzyl)oxy)benzyl)-6-(1-methyl-1H-pyrazol-4-yl)-3H-imidazo[4,5-b]pyridin-2-amine monohydrate compound suspended in vehicle. Vehicle was […], 4.5% sorbitol, in aqueous phosphate buffer at pH 7.4. Each Test Article in the form of a suspension contained 20 mg/mL methoxy-4-((4-methoxy-benzyl)oxy)benzyl)-6-(1-methyl-1H-pyrazol-4-yl)-3H-imidazo[4,5-b]pyridin-2-amine monohydrate in the specified crystalline form.
The left knee joint (without injuring the articular capsule) of the rats together with 5-10 mm of both tibia and femur was collected from the first 6 animals/group after sacrifice at the last blood collection time point at approximately 672 hours postdose. The harvested knee joint was weighed. The left knee joint (without injuring the articular capsule) of the rats together with 5-10 mm of both tibia and femur was collected from the second 6 animals/group after sacrifice at the last blood collection time point at approximately 1344 hours postdose. The harvested knee joint was weighed. Tissue samples were maintained on dry ice prior to storage at −60 to −80° C. The knee joint samples were pulverized, then extracted with acetonitrile/water to provide a solution that was analyzed by using liquid chromatograph-mass spectrometry to determine the amount of the compound methoxy-4-((4-methoxybenzyl)oxy)benzyl)-6-(1-methyl-1H-pyrazol-4-yl)-3H-imidazo[4,5-b]pyridin-2-amine.

[3] = Pharmacokinetic parameters in plasma after intra-articular administration to rats; type: in vivo, Sprague Dawley rats; details: for Tmax / AUC(0-t) / AUC0-inf / Cmax / AUC0-672 / AUC0-1344 / Ratio Result from Compound Form 3/Compound Form 1: AUC0-672 / Ratio Result from Compound Form 3/Compound Form 1: AUC0-1344 / Ratio Result from Compound Form 3/Compound Form 1: AUC0-inf / Ratio Result from Compound Form 3/Compound Form 1: Cmax: plasma; for Tmax / AUC(0-t) / AUC0-inf / Cmax / AUC0-672 / AUC0-1344: male rat; for Tmax: range printed in row below; for AUC(0-t) / AUC0-inf / Cmax / AUC0-672 / AUC0-1344: mean
Method: as §1, §2, §3
Blood samples were collected from the jugular vein of the rats via syringe and needle and transferred into tubes containing K3EDTA. Blood samples were collected from the first six animals/group at 2 minutes, 10 minutes, 1 hr, 4 hr, 12 hr, 72 hr, 336 hr, and 672 hr after administration of Test Article. Blood samples were collected from the second six animals/group at 5 minutes, 0.5 hr, 2 hr, 8 hr, 24 hr, 168 hr, 1008 hr, and 1344 hr after administration of Test Article. Following centrifugation of the blood samples, plasma was cooled using dry ice until it was subjected to analytical analysis using liquid chromatograph-mass spectrometry to determine the amount of the compound methoxy-4-((4-methoxybenzyl)oxy)benzyl)-6-(1-methyl-1H-pyrazol-4-yl)-3H-imidazo[4,5-b]pyridin-2-amine.

[4] = Comparison of stability: temperature of dehydration; type: physicochemical
Source text: Stability of crystalline 3-(3-methoxy-4-((4-methoxybenzyl)oxy)benzyl)-6-(1-methyl-1H-pyrazol-4-yl)-3H-imidazo[4,5-b]pyridin-2-amine monohydrate Form 3 was compared to crystalline 3-(3-methoxy-4-((4-methoxybenzyl)oxy)benzyl)-6-(1-methyl-1H-pyrazol-4-yl)-3H-imidazo[4,5-b]pyridin-2-amine monohydrate Form 1. The physical property analyzed was temperature of dehydration. Crystalline 3-(3-methoxy-4-((4-methoxybenzyl)oxy)benzyl)-6-(1-methyl-1H-pyrazol-4-yl)-3H-imidazo[4,5-b]pyridin-2-amine monohydrate Form 1 is that described in international patent application publication WO 2016/100677.

Dynamic vapor sorption = type: physicochemical; details: 25° C., 2 cycles of increasing and decreasing relative humidity, steps of 5% RH
Method: A dynamic vapor sorption isotherm plot of crystalline 3-(3-methoxy-4-((4-methoxybenzyl)oxy)benzyl)-6-(1-methyl-1H-pyrazol-4-yl)-3H-imidazo[4,5-b]pyridin-2-amine monohydrate Form 3 is provided in FIG. 3. The dynamic vapor sorption isotherm plot results are from the procedure where after a drying stage at 0% relative humidity, compound sample was exposed to 2 cycles of increasing and decreasing relative humidity at 25° C., with steps of 5% relative humidity, where mass of the sample was recorded throughout the experiment.

[5] = 0.1 mg/knee, 672 hr, monohydrate
[6] = 1 mg/knee, 1344 hr, monohydrate
[7] = 0.1 mg/knee intra-articular, monohydrate
[8] = 1 mg/knee intra-articular, monohydrate

average release rate [1]: 0.54 %/hr
one-half dissolution time [1]: 66 h
Mean Knee Concentration of Compound [2, 5]: 852 ng/g
Mean Knee/Plasma Concentration Ratio [2, 5]: 58800
Mean Knee Concentration of Compound ([2]; 0.1 mg/knee, 1344 hr, monohydrate): <LLOQ
Mean Knee Concentration of Compound ([2]; 1 mg/knee, 672 hr, monohydrate): 37400 ng/g
Mean Knee/Plasma Concentration Ratio ([2]; 1 mg/knee, 672 hr, monohydrate): 22100
Mean Knee Concentration of Compound [2, 6]: 4560 ng/g
Mean Knee/Plasma Concentration Ratio [2, 6]: 19000
Tmax ([3]; Sprague Dawley, 0.1 mg/knee intra-articular): 4 h
AUC(0-t) ([3]; male, Sprague Dawley, rat, 0.1 mg, 0.1 mg/knee intra-articular, read-out: AUC0-672): 1350 ng·h/mL
AUC0-inf ([3]; male, Sprague Dawley, rat, 0.1 mg, 0.1 mg/knee intra-articular, read-out: AUC0-inf): 1290 ng·h/mL
AUC(0-t) ([3]; male, Sprague Dawley, rat, 0.1 mg, 0.1 mg/knee intra-articular, summary from second six animals, read-out: AUC0-1344): 1330 ng·h/mL
Cmax [3, 7]: 34.3 ng/mL
AUC0-672 [3, 8]: 10600 ng·h/mL
AUC0-inf [3, 8]: 11800 ng·h/mL
Cmax [3, 8]: 71.6 ng/mL
AUC0-1344 ([3]; 1 mg/knee intra-articular, summary from second six animals, monohydrate): 11100 ng·h/mL
dehydration behaviour ([4]; room temperature, stream of nitrogen gas): undergo dehydration at room temperature
Structure (SMILES): COc1ccc(COc2ccc(Cn3c(N)nc4cc(-c5cnn(C)c5)cnc43)cc2OC)cc1 [Form 1 Compound, 3-(3-methoxy-4-((4-methoxybenzyl)oxy)benzyl)-6-(1-methyl-1H-pyrazol-4-yl)-3H-imidazo[4,5-b]pyridin-2-amine monohydrate, reference compound]
knee concentration of compound (in words) ([2]; monohydrate): below the limit of quantification in the majority of animals

average release rate [1]: 0.35 %/hr
one-half dissolution time [1]: 112 h
dialysis dissolution rate compared to Form 1 ([1]; simulated intra-articular fluid): significantly lower
Knee concentration: Ratio of Form 3 Compound/Form 1 Compound ([2]; 0.1 mg/knee, 672 hr): 5.62
Knee/plasma ratio: Ratio of Form 3 Compound/Form 1 Compound ([2]; 0.1 mg/knee, 672 hr): 0.733
Mean Knee Concentration of Compound [2, 5]: 4790 ng/g
Mean Knee/Plasma Concentration Ratio [2, 5]: 43100
Mean Knee/Plasma Concentration Ratio ([2]; 0.1 mg/knee, 1344 hr): 77400
Knee concentration: Ratio of Form 3 Compound/Form 1 Compound ([2]; 1 mg/knee, 672 hr): 5.40
Knee/plasma ratio: Ratio of Form 3 Compound/Form 1 Compound ([2]; 1 mg/knee, 672 hr): 2.64
Mean Knee Concentration of Compound ([2]; 1 mg/knee, 672 hr, monohydrate): 202000 ng/g
Mean Knee/Plasma Concentration Ratio ([2]; 1 mg/knee, 672 hr, monohydrate): 58300
Knee concentration: Ratio of Form 3 Compound/Form 1 Compound ([2]; 1 mg/knee, 1344 hr): 13.6
Knee/plasma ratio: Ratio of Form 3 Compound/Form 1 Compound ([2]; 1 mg/knee, 1344 hr): 1.96
Mean Knee Concentration of Compound [2, 6]: 62200 ng/g
Mean Knee/Plasma Concentration Ratio [2, 6]: 37200
concentration at 1344 hr ([2]; male, Sprague Dawley, rat, knee joint, other: intra-articular injection to the left knee joint, 0.1 mg/knee, 1344 hr, read-out: Mean Knee Concentration of Compound): 383 ng/g
Tmax ([3]; Sprague Dawley, 1 mg/knee intra-articular): 4 h
absorption compared to Form 1 Compound ([3]; intra-articular, rat): slower and more prolonged
AUC0-inf ([3]; male, Sprague Dawley, rat, 1 mg, 1 mg/knee intra-articular, read-out: AUC0-inf): 8040 ng·h/mL
Cmax ([3]; male, Sprague Dawley, rat, 1 mg, 1 mg/knee intra-articular, read-out: Cmax): 52.1 ng/mL
AUC(0-t) ([3]; male, Sprague Dawley, rat, 1 mg, 1 mg/knee intra-articular, summary from second six animals, read-out: AUC0-1344): 7100 ng·h/mL
Ratio Result from Compound Form 3/Compound Form 1: AUC0-672 ([3]; 0.1 mg/knee): 0.508
Ratio Result from Compound Form 3/Compound Form 1: AUC0-1344 ([3]; 0.1 mg/knee): 0.611
Ratio Result from Compound Form 3/Compound Form 1: AUC0-inf ([3]; 0.1 mg/knee): 0.587
Ratio Result from Compound Form 3/Compound Form 1: Cmax ([3]; 0.1 mg/knee): 0.332
Ratio Result from Compound Form 3/Compound Form 1: AUC0-672 ([3]; 1 mg/knee): 0.494
Ratio Result from Compound Form 3/Compound Form 1: AUC0-1344 ([3]; 1 mg/knee): 0.640
Ratio Result from Compound Form 3/Compound Form 1: AUC0-inf ([3]; 1 mg/knee): 0.681
Ratio Result from Compound Form 3/Compound Form 1: Cmax ([3]; 1 mg/knee): 0.728
AUC0-672 [3, 7]: 686 ng·h/mL
AUC0-inf [3, 7]: 757 ng·h/mL
Cmax [3, 7]: 11.4 ng/mL
AUC0-1344 ([3]; 0.1 mg/knee intra-articular, summary from second six animals, monohydrate): 813 ng·h/mL
AUC0-672 [3, 8]: 5240 ng·h/mL
hygroscopicity (dynamic vapor sorption isotherm) (Dynamic vapor sorption): not hygroscopic
thermodynamic stability compared to monohydrate Form 1 [4]: thermodynamically more stable
temperature of dehydration ([4]; heated): 130 °C
Structure (SMILES): COc1ccc(COc2ccc(Cn3c(N)nc4cc(-c5cnn(C)c5)cnc43)cc2OC)cc1 [Form 3 Compound, 3-(3-methoxy-4-((4-methoxybenzyl)oxy)benzyl)-6-(1-methyl-1H-pyrazol-4-yl)-3H-imidazo[4,5-b]pyridin-2-amine monohydrate]
knee concentration of compound (in words) ([2]; monohydrate): consistently higher than the concentration

Reference: patent US12291528B2, “Crystalline imidazo[4,5-b]pyridine compound, pharmaceutical compositions, and their use in treating medical conditions” (Genzyme Corporation, priority 2021, dated 2025)
